*1 amine or outer side, *2 acyl side, *3 side chain or, on linkers, in order; H or OH if unused. Where a SMILES comes first, the peptide text is derived from it. [ ]: non-standard residue; d: D form. X1 = O=C(c1cc2c(c([N+](=O)[O-])c1)N([*:1])CC2)[*:2]; Hyp = O=C(O)[C@@H]1C[C@@H](O)CN1
Key:
[1] = Two-photon photolysis followed by fluorescence decay under a femtosecond laser at 710 nm; format: physicochemical; details: 710 nm femtosecond laser, 100 to 200 mW; film/gel on microscope slide; slope 2 = two-photon process
From the text: Two-photon microscope. The details of the in-housed developed two-photon microscope was previously described (Acosta et al., (2014) Biomed. Opt. Express 5, 3990-4001). In summary the light source is a mode-locked Ti:Sapphire laser (Maitai H P, 690-1040 nm, 100 fs, 80 MHz, Newport, Santa Clara, Calif.). The inventors have used 710 nm light to achieve two-photon excitation of N-acyl-nitroindoline. The home-built x-y scanner (polygon, galvanometer) can achieve 30 frames/s scanning rate. The laser power at the sample site is varied by rotating a half-wave plate in front of a polarizer. The fluorescence signal from the sample are detected in three spectral channels with photomultiplier tubes (PMTs): red (570-616 nm), green (500-550 nm), and blue (417-477 nm). […]
Several spots within the sample were irradiated under the two-photon microscope using 710 nm light with varying excitation laser output powers ranging from 100 to 200 mW with increments of 25 mW. […] Therefore, as the photolysis reaction progresses, the fluorescent peptide 1 is consumed, and consequentially a decrease in average fluorescence intensity at the irradiation site is observed. For each irradiated spot, a time series of fluorescence images was recorded at every minute to track the fluorescence intensity decay throughout the photo induced reaction process (FIG. 4a-4d). […]

[2] = format: physicochemical
Procedure: Circular Dichroism (CD) of peptide 1 and thermal stability measurements. Far-UV CD studies were conducted to study the secondary structure of peptide 1. The measurements were carried out using a 20 μM solution of the lyophilized peptide 1 in 15 mM NaCl and 10 mM Na/K buffer (pH 6.8). The sample was placed into a quartz cuvette of 1 mm path length (Jasco) and heated from 20° C.-70° C. to characterize its thermal stability. At each temperature, the sample was equilibrated for 4 min prior measurement of the spectrum. CD scans were performed at a range from 196-240 nm with three accumulations of data at each temperature to improve the S/N ratio. Each spectrum underwent 11 point Savitzky-Golay smoothing to minimize high frequency noise. The experimentally estimated ellipticities (Gobs) were converted to mean molar ellipticity [θ] using the formula: [θ]=(θobs)/ncl where l is the path length of the cuvette; c is the concentration of the peptide, and n is the number of […] in the peptide.

[3] = test system: human mesenchymal stem cells; format: cell-based
From the text: Culture and passaging of human Mesenchymal Stem Cells (MSC). Human adipose derived mesenchymal stem cells were obtained from Lonza at passage=3 (Lonza, Allendale, N.J., USA) and cultured according to manufacturer's recommendations. Certification was obtained and kept in file to ensure that the purchased human MSC (Lonza) was verified to be of the correct lineage and uncontaminated by other cell types or organisms. For the human MSC culture, a complete growth medium (Lonza) specifically MSCGM human Mesenchymal Stem Cell (HMSC) growth BulletKit™ Medium (Lonza) was used for maintaining the mesenchymal stem cells in an undifferentiated state. This medium is referred to as complete growth medium for HMSC here onwards. Prior to cell seeding, T-75 culture flasks were coated with 0.1% gelatin (Sigma Aldrich, St. Louis, Mo., USA) and incubated (37° C., 1 h). After this, the cell suspension in complete culture medium was transferred to a gelatin coated T-75 flask and incubated for 1 h (37° C., 5% CO2 and 95% RH). Prior to cell culture, the gelatin solution used for coating of the flasks was aspirated. After 70% confluency in culture was attained, cells were trypsizined and passaged for further experiments. […] Following this, cells were seeded atop this layer and cultured for 24 hours after which they were imaged using fluorescence microscopy (Zeiss Axiovision).

Structure (SMILES) | slope of the regression line in the double-log plot of reaction rate vs. laser intensity [1] | stability of the structure at physiological temperature [2] | cytotoxicity to cultured mesenchymal stem cells [3]
O=C(NCC(=O)N1CCc2cc(Br)cc([N+](=O)[O-])c21)OCC1c2ccccc2-c2ccccc21 [compound 13, N-Fmoc-glycyl-5-bromo-7-nitroindoline] | 1.996 | – | –
NC(=O)CNC(=O)[C@@H]1CCCN1C(=O)[C@@H]1C[C@@H](O)CN1C(=O)CNC(=O)[C@@H]1CCCN1C(=O)[C@@H]1CCCN1C(=O)c1cc2c(c([N+](=O)[O-])c1)N(C(=O)CNC(=O)[C@@H]1CCCN1C(=O)[C@@H]1C[C@@H](O)CN1C(=O)CNC(=O)[C@@H]1CCCN1C(=O)[C@@H]1CCCN1C(=O)c1cc3c(c([N+](=O)[O-])c1)N(C(=O)CNC(=O)[C@@H]1CCCN1C(=O)[C@@H]1C[C@@H](O)CN1C(=O)CNC(=O)[C@@H]1CCCN1C(=O)[C@@H]1CCCN1C(=O)c1cc4c(c([N+](=O)[O-])c1)N(C(=O)CNC(=O)[C@@H]1CCCN1C(=O)[C@@H]1C[C@@H](O)CN1C(=O)CNC(=O)[C@@H]1CCCN1C(=O)[C@@H]1CCCN1C(=O)c1cc5c(c([N+](=O)[O-])c1)N(C(=O)CNC(=O)[C@@H]1CCCN1C(=O)[C@@H]1C[C@@H](O)CN1C(=O)CNC(=O)[C@@H]1CCCN1C(=O)[C@@H]1CCCN1)CC5)CC4)CC3)CC2 [peptide 1] (H-PPG[Hyp]PG[X1]PPG[Hyp]PG[X1]PPG[Hyp]PG[X1]PPG[Hyp]PG[X1]PPG[Hyp]PG-NH2) | – | very stable | not cytotoxic
